Values quoted from earlier work in US9708371B2, “Treatments for gastrointestinal disorders” (Ironwood Pharmaceuticals, Inc., priority 2011, dated 2017).
Bridge positions count the residues as written; N and C are the ends. Peptide text beside a SMILES is read from it.

Details: therapeutic dose levels

C[C@@H]1NC(=O)[C@@H]2CCCN2C(=O)[C@H](CC(N)=O)NC(=O)[C@@H]2CSSC[C@H](N)C(=O)N[C@H]3CSSC[C@H](NC1=O)C(=O)N[C@@H]([C@@H](C)O)C(=O)NCC(=O)N[C@H](C(=O)N[C@@H](Cc1ccc(O)cc1)C(=O)O)CSSC[C@H](NC(=O)[C@H](Cc1ccc(O)cc1)NC(=O)[C@H](CCC(=O)O)NC3=O)C(=O)N2 [Linaclotide, Cys Cys Glu Tyr Cys Cys Asn Pro Ala Cys Thr Gly Cys Tyr] (H-CCEYCCNPACTGCY-OH; disulfide 1-6, 2-10, 5-13 (inferred); N-terminus and C-terminus assumed)
levels seen systemically after oral administration: no detectable levels
